Reference: patent US4041048A, “3,2-Benzoxazepine derivatives” (Gruppo Lepetit S.p.A., priority 1971, dated 1977)

How the values were obtained:
[1] = Toxicity, LD50 in mice i.p.; conditions: mouse, in vivo, ip
central nervous system [2] = experiment: Inhibition of secondary conditioned avoidance response in mice (anxiety-relieving effect); assay type: in vivo; conditions: Mus musculus, ip, read-out: ED50, Secondary conditioned avoidance response
Protocol: (§1) Decreasing the spontaneous activity in mice after intraperitoneal administration of an effective amount of the compounds was taken as a measure of the sedative effect, while impairment of motor coordination and righting reflex were related to hypnotic properties. The myorelaxing characteristics were evaluated by considering the body tone, while the anxiety-relieving effect was measured on the basis of the inhibition of the secondary conditioned avoidance response.

central nervous system [3] = experiment: Body tone in mice (myorelaxing characteristics); assay type: in vivo; conditions: Mus musculus, ip, read-out: ED50, Body tone
Protocol: as §1

central nervous system [4] = experiment: Impairment of motor coordination and righting reflex in mice (hypnotic properties); assay type: in vivo; conditions: Mus musculus, ip, read-out: ED50, Impairment of motor coordination and righting reflex
Protocol: as §1

central nervous system [5] = experiment: Decrease of spontaneous activity in mice (sedative effect); assay type: in vivo; conditions: Mus musculus, ip, read-out: ED50, Spontaneous activity
Protocol: as §1

[6] = tested on: carrageenin-induced edema; experiment: Carrageenin-induced edema test (anti-inflammatory activity); assay type: in vivo; conditions: 100 mg/kg p.o., rats
Source text: |Carrageenin-induced edema test

[7] = LD50 to which the edema test dose is related; assay type: in vivo; conditions: rats

SMILES	LD50 [1] [mg/kg]	ED50 (central nervous system [2]; i.p. in mice) [mg/kg]	ED50 (central nervous system [3]; i.p. in mice) [mg/kg]	ED50 (central nervous system [4]; i.p. in mice) [mg/kg]	ED50 (central nervous system [5]; i.p. in mice) [mg/kg]	% Decrease of the edema [6] [%]	dose of 100 mg/kg per os as fraction of the LD50 value [7]	further results
C=CCN1OCCc2ccccc2C1C (stereo not drawn) [Example 17]	> 500							
CC(C)=CC(=O)N1OCCc2ccccc2C1C (stereo not drawn) [Example 12, 1-Methyl-2-(3-methyl-2-butenoyl)-1,2,4,5-tetrahydro-3,2-benzoxazepine]	> 500							
CC(=O)N1OCCc2ccccc2C1C (stereo not drawn) [Example 18, 2-acetyl-1-methyl-1,2,4,5-tetrahydro-3,2-benzoxazepine]		60	200	60	100			
CC1c2ccccc2CCON1C(N)=O (stereo not drawn) [Example 6, 2-Carbamyl-1-methyl-1,2,4,5-tetrahydro-3,2-benzoxazepine]	> 500	15	80	60	60			
CC1c2ccccc2CCON1C(=O)N1CCOCC1 (stereo not drawn) [Example 24]	> 500					32	about one-tenth to about one-fifth	
CCN(CC)C(=O)N1OCCc2ccccc2C1C (stereo not drawn) [Example 11, 2-Diethylcarbamyl-1-methyl-1,2,4,5-tetrahydro-3,2-benzoxazepine]	> 500					31	about one-tenth to about one-fifth	
CNC(=O)N1OCCc2ccccc2C1C (stereo not drawn) [Example 15, 1-Methyl-2-methylcarbamyl-1,2,4,5-tetrahydro-3,2-benzoxazepine]	> 500					31.5	about one-tenth to about one-fifth	
CN1Cc2ccccc2CCO1 [Example 16]	> 500	40	10	120	100	30.5	about one-tenth to about one-fifth	
CC1c2ccccc2CCON1C (stereo not drawn) [Example 7, 1,2-Dimethyl-1,2,4,5-tetrahydro-3,2-benzoxazepine]	> 500					30	about one-tenth to about one-fifth	
CC1NOCCc2ccccc21 (stereo not drawn) [Example 4, 1-Methyl-1,2,4,5-tetrahydro-3,2-benzoxazepine]		60	20	60	100			
NC(=O)OCCN1Cc2ccccc2CCO1 [Example 9, 2-(2-Carbamyloxyethyl)-1,2,4,5-tetrahydro-3,2-benzoxazepine]	> 500							ED50 (central nervous system [2]): 30 mg/kg; ED50 (central nervous system [3]): 300 mg/kg; ED50 (central nervous system [4]): 100 mg/kg; ED50 (central nervous system [5]): 100 mg/kg
